Source: patent US20260144766A1, “USE OF CANNABINOID 1 RECEPTOR AGONIST ARACHIDONOYL CYCLOPROPYLAMIDE (ACPA) IN NON SMALL CELL LUNG CANCER” (HACETTEPE UNIVERSITESI, priority 2019, published 2026)
Entries after “also recorded” stand apart in the source; their conditions may differ.

Key:
[1] = system: A549 cells; assay: WST-1 proliferation analysis, A549; assay type: cell-based
Description: (§1) 1.2. Evaluation of the Dose- and Time-Dependent Effect of ACPA to Cancer Cell Proliferation by WST-1 Technique

[2] = system: H1299 cells; assay: WST-1 proliferation analysis, H1299; assay type: cell-based; conditions: all doses, days 1, 2 and 3, p<0.05
Description: as §1

[3] = system: H358 cells; assay: WST-1 proliferation analysis, H358; assay type: cell-based; conditions: p<0.05
Description: as §1

[4] = system: H838 cells; assay: WST-1 proliferation analysis, H838; assay type: cell-based; conditions: p<0.05
Description: as §1

[5] = system: A549 cells; assay: Real time impedance-based proliferation analysis, A549; assay type: cell-based
Description: (§2) 1.3. Evaluation of the Effect of ACPA against Cancer Cell Proliferation by Real Time Impedance-Based Proliferation Analysis
(§3) ACPA has been applied between this dose range (10^−9, 10^−10, 10^−11 and 10^−12 M) during the real time impedance-based proliferation analysis. After the cells are seeded when the cell indices reach 1.0, ACPA dose range has been applied. The graph has been normalized from the point where the cell indices reached 1.0 and ACPA application has been carried out at different doses. […] After ACPA has been added at the determined dose range, it has led to reduction in the proliferation of H1299 cells as of the 66th hour.

[6] = system: H1299 cells; assay: Real time impedance-based proliferation analysis, H1299; assay type: cell-based
Description: as §2, §3

[7] = system: H358 cells; assay: Real time impedance-based proliferation analysis, H358; assay type: cell-based
[8] = system: H838 cells; assay: Real time impedance-based proliferation analysis, H838; assay type: cell-based
Description: as §2, §3

[9] = system: A549, H1299, H358 and H838 cells; assay: Efficient dose range over the 4 non-small cell lung cancer lines (WST-1 and real time impedance-based analysis); conditions: 4 cell lines A549, H1299, H358 and H838
Description: as §3
Within the scope of the research, the efficient dose and time of the CB1 receptor agonist ACPA has been calculated using the WST-1 and real time impedance-based proliferation analysis method on the examined 4 different non-small cell lung cancer lines.

[10] = normalized cell index vs log ACPA concentration, read-out: antiproliferative IC50
[11] = dose ranges applied, depending on time

CCCCC/C=C\C/C=C\C/C=C\C/C=C\CCCC(=O)NC1CC1 [ACPA, Arachidonoyl cyclopropylamide] was tested, and the “proliferation vs control group (WST-1 absorbance)” value ([1]; day 1, doses 10^−12, 10^−11, 10^−10 and 10^−9 M, p<0.05) was “statistically significantly reduced”, the “antiproliferative effect (WST-1)” value ([1]; second and 3rd days, doses applied) was “antiproliferative effect was not observed” and the “antiproliferative effect (WST-1)” value [2] was “significant antiproliferative effect; also recorded: Antiproliferative effect has been observed”. The “antiproliferative effect (WST-1)” value ([3]; 2nd day, all doses) was “Antiproliferative effect was seen”, the “antiproliferative effect (WST-1)” value ([3]; day 1, doses 10^−10, 10^−8, 10^−7 and 10^−6 M) was “antiproliferative effect of ACPA was observed” and the “proliferation vs control group (WST-1)” value ([4]; 2nd day, 10^−9 M) was “antiproliferative effect; also recorded: reduced the proliferation of H838 cells statistically significantly”. For the same compound, the “proliferation vs control group (WST-1)” value ([4]; 3rd day, 10^−9 and 10^−12 M) was “antiproliferative effect; also recorded: reduced the proliferation of H838 cells statistically significantly”, the “proliferation (normalized cell index)” value ([5]; ACPA 10^−9 to 10^−12 M) was “not exhibited a significant change” and the “efficient dose, effect seen on the 48th hour” value (shortened to “efficient dose, effect seen”) ([5]; WST-1 and impedance analysis) was 1.39 pM. The IC50 [5, 10] was 1.39 pM, the “proliferation in comparison to the control group (impedance)” value ([6]; 1.39×10^−12 M ACPA (free or released from nanoparticles), 48 and 72nd hours, p<0.05) was “significant reduction has been observed” and the “proliferation (normalized cell index)” value ([6]; 10^−11 M, as of the 66th hour, p<0.05) was “significantly reduced the proliferation of cells”. The “proliferation (normalized cell index)” value ([6]; 10^−12, 10^−10 and 10^−9 M, after the 86th hour, p<0.05) was “significantly reduced the proliferation of cells”, the “efficient dose, effect seen” value ([6]; WST-1 and impedance analysis) was 1.39 pM and the “proliferation (normalized cell index)” value [6, 11] was “reduced the proliferation”. The IC50 [6, 10] was 1.39 pM, the “efficient dose, effect seen” value ([7]; WST-1 and impedance analysis) was 1.39 pM and the “proliferation (normalized cell index)” value [7, 11] was “reduced the proliferation”. The IC50 [7, 10] was 1.38 pM, the “proliferation in comparison to the control group (impedance)” value ([8]; 1.39×10^−12 M ACPA, 190th hour, p<0.05) was “statistically significant reduction” and the “proliferation vs control group (normalized cell index)” value ([8]; ACPA doses, following the 30th hour, p<0.05) was “significantly reduced the proliferation of cells”. The “efficient dose, effect seen” value ([8]; WST-1 and impedance analysis) was 34.7 pM, the “proliferation (normalized cell index)” value [8, 11] was “reduced the proliferation” and the IC50 [8, 10] was 34.7 pM. For the same compound, the “dose range found to be efficient in WST-1 analysis” value [9] was 10^−12-10^−9 M.
